Measured values reported in patent publication US8389557B2, “Triazole derivatives useful as Axl inhibitors” (Rigel Pharmaceuticals, Inc., priority 2005, dated 2013).

Target: T1, Axl (Homo sapiens, UniProt P30530)
T1 construct: endogenous in cells; host or cells: HeLa cells
T1 sequence (P30530 26-894): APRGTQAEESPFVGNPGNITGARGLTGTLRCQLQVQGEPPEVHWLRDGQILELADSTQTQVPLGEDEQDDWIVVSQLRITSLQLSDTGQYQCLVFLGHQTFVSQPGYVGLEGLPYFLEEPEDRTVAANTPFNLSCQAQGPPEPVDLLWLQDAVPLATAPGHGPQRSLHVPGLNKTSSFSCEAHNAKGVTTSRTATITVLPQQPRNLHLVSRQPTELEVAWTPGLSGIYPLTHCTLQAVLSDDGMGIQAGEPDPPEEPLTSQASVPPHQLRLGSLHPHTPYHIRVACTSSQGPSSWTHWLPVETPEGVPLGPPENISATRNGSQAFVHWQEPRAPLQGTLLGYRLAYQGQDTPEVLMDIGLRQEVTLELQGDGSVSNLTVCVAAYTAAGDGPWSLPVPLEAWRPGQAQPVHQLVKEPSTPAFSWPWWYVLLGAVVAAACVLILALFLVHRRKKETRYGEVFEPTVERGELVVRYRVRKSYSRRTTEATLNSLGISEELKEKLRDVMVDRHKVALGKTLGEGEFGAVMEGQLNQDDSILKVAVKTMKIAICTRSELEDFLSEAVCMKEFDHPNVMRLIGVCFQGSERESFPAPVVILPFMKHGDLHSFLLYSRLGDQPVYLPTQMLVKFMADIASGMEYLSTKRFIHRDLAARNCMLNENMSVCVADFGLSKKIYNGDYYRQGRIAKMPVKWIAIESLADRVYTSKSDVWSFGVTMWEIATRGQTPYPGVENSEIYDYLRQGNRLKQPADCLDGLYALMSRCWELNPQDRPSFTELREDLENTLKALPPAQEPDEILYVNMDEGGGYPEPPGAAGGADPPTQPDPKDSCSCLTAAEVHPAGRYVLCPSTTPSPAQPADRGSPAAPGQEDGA
Assay: Phospho-Akt in-cell Western assay (inhibition of Axl activity)
Type: cell-based
Method in brief: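 HeLa cells on poly-L-lysine, starved 24 h in 0.5% FCS DMEM with Axl/Fc 500 ng/mL, pre-treated with compound 1 h at 37° C. Axl stimulated 5 min by anti-Axl/anti-mouse antibody cross-linking. Fixed cells probed with anti-phospho-Akt and HRP secondary, chemiluminescence read.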

[1] = Table 5, Hela cells, Axl antibody cross-linking stimulation, phospho-Akt chemiluminescence
[2] = inhibition of Axl activity, Table 1
[3] = Table 2, Hela cells, Axl antibody cross-linking stimulation, phospho-Akt chemiluminescence

Structure (SMILES)	IC50 [2] [µM]	also measured
Cc1cccc(C(=O)n2nc(Nc3ccc4oc(COC5CCCCO5)cc4c3)nc2N)c1 (stereo not shown) [compound 130, 5-amino-3-[N-(2-(tetrahydropyran-2-yloxy)methylbenzofuran-5-yl)-amino]-1-(3-(methyl)phenyl)carbonyl-1H-1,2,4-triazole]	–	IC50 [1]: 1 to 10 µM
Cc1ccc(Nc2nc(N)n(C(=O)c3ccc(C)cc3)n2)cc1 [compound 131, 5-amino-3-[4-(methyl)phenylamino]-1-(4-(methyl)phenyl)carbonyl-1H-1,2,4-triazole]	> 20	–
COc1ccc(Nc2nc(N)n(C(=O)c3ccc(C)cc3)n2)cc1 [compound 132, 5-amino-3-[4-(methoxy)phenylamino]-1-(4-(methyl)phenyl)carbonyl-1H-1,2,4-triazole]	1 to 10	–
Cc1ccc(C(=O)n2nc(Nc3cccc(C)c3)nc2N)cc1 [compound 133, 5-amino-3-[3-(methyl)phenylamino]-1-(4-(methyl)phenyl)carbonyl-1H-1,2,4-triazole]	1 to 10	–
COc1cccc(Nc2nc(N)n(C(=O)c3ccc(C)cc3)n2)c1 [compound 134, 5-amino-3-[3-(methoxy)phenylamino]-1-(4-(methyl)phenyl)carbonyl-1H-1,2,4-triazole]	1 to 10	–
COC(=O)COc1cccc(Nc2nc(N)n(C(=O)c3ccc(OC(C)C)cc3)n2)c1 [compound 135, 5-amino-1-(4-(iso-propoxy)phenyl)carbonyl-3-[3-(methoxycarbonylmethoxy)phenylamino]-1H-1,2,4-triazole]	1 to 10	–
Cc1cccc(C(=O)n2nc(Nc3ccc4oc(CO)cc4c3)nc2N)c1 [compound 136, 5-amino-3-(2-(hydroxymethyl)benzofuran-5-yl)amino-1-(3-(methyl)phenyl)carbonyl-1H-1,2,4-triazole]	–	IC50 [1]: 1 to 10 µM
Cc1ccc(C(=O)n2nc(Nc3ccccc3)nc2N)cc1 [compound 137, 5-amino-1-(4-(methyl)phenyl)carbonyl-3-phenylamino-1H-1,2,4-triazole]	> 20	–
COC(=O)COc1cccc(C(=O)n2nc(Nc3ccc4c(c3)OCCO4)nc2N)c1 [compound 138, 5-amino-3-(1,4-benzodioxan-6-yl)amino-1-[3-(methoxycarbonylmethoxy)phenyl)carbonyl-1H-1,2,4-triazole]	1 to 10	–
CC(C)Oc1ccc(C(=O)n2nc(Nc3cccc(OCC(F)(F)F)c3)nc2N)cc1 [compound 139, 5-amino-1-(4-(iso-propoxy)phenyl)carbonyl-3-[3-(2,2,2-trifluoroethoxy)phenylamino]-1H-1,2,4-triazole]	> 20	–
Nc1nc(Nc2ccc3c(c2)OCCO3)nn1C(=O)c1ccc(OCc2ccccc2)cc1 [compound 142, 5-amino-1-(4-(benzyloxy)phenyl)carbonyl-3-(1,4-benzodioxan-6-yl)amino-1H-1,2,4-triazole]	1 to 10	–
COc1ccccc1Nc1nc(N)n(C(=O)c2ccc(C)cc2)n1 [compound 143, 5-amino-3-[2-(methoxy)phenylamino]-1-(4-(methyl)phenyl)carbonyl-1H-1,2,4-triazole]	> 20	–
Cc1ccc(C(=O)n2nc(Nc3ccccc3C)nc2N)cc1 [compound 144, 5-amino-3-[2-(methyl)phenylamino]-1-(4-(methyl)phenyl)carbonyl-1H-1,2,4-triazole]	> 20	–
CNC(=O)COc1cccc(Nc2nc(N)n(C(=O)c3cccc(C)c3)n2)c1 [compound 146, 5-amino-3-[3-(methylaminocarbonylmethoxy)phenylamino]-1-(3-(methyl)phenyl)carbonyl-1H-1,2,4-triazole]	1 to 10	–
COC(=O)COc1cccc(Nc2nc(N)n(C(=O)c3cccc(C)c3)n2)c1 [compound 147, 5-amino-3-[3-(methoxycarbonylmethoxy)phenylamino]-1-(3-(methyl)phenyl)carbonyl-1H-1,2,4-triazole]	1 to 10	–
Cc1cccc(C(=O)n2nc(Nc3cccc(OCC(=O)NCC4COC(C)(C)O4)c3)nc2N)c1 (stereo not shown) [compound 148]	1 to 10	–
Nc1nc(Nc2ccc3c(c2)OCCO3)nn1C(=O)c1ccc(OCCN2CCOCC2)cc1 [compound 149, 5-amino-3-(1,4-benzodioxan-6-yl)amino-1-[4-[2-(morpholin-4-yl)ethoxy]phenyl]carbonyl-1H-1,2,4-triazole]	1 to 10	–

Structure (SMILES)	IC50 [2] [µM]	also measured
Nc1nc(Nc2ccc3c(c2)OCCO3)nn1C(=O)c1cccc(OCCN2CCOCC2)c1 [compound 150, 5-amino-3-(1,4-benzodioxan-6-yl)amino-1-[3-[2-(morpholin-4-yl)ethoxy]phenyl]carbonyl-1H-1,2,4-triazole]	> 20	–
CC(C)Oc1ccc(C(=O)n2nc(Nc3ccc(OC4CCCC4)cc3)nc2N)cc1 [compound 151, 5-amino-3-[4-(cyclopentoxy)phenylamino]-1-(4-(iso-propoxy)phenyl)carbonyl-1H-1,2,4-triazole]	> 20	–
CC(C)Oc1ccc(C(=O)n2nc(Nc3ccc(OCC(F)(F)F)cc3)nc2N)cc1 [compound 152, 5-amino-1-(4-(iso-propoxy)phenyl)carbonyl-3-[4-(2,2,2-trifluoroethoxy)phenylamino]-1H-1,2,4-triazole]	> 20	–
Cc1cccc(C(=O)n2nc(Nc3cccc(OCC(=O)NCC(O)CO)c3)nc2N)c1 (stereo not shown) [compound 153, 5-amino-3-[3-(N-(2,3-dihydroxypropyl)amino)carbonylmethoxy]-phenylamino-1-(3-(methyl)phenyl)carbonyl-1H-1,2,4-triazole]	1 to 10	–
Cc1cccc(C(=O)n2nc(Nc3ccc4[nH]ncc4c3)nc2N)c1 [compound 154, 5-amino-3-(indazol-5-yl)amino-1-(3-(methyl)phenyl)carbonyl-1H-1,2,4-triazole]	–	IC50 [1]: 1 to 10 µM
Nc1nc(Nc2ccc3c(c2)OCCO3)n(C(=O)c2cccc(OCc3ccccc3)c2)n1 [compound 155, 3-amino-1-(3-(benzyloxy)phenyl)carbonyl-5-(1,4-benzodioxan-6-yl)amino-1H-1,2,4-triazole]	–	IC50 [3]: > 20 µM
Nc1nc(Nc2ccc3c(c2)OCCO3)nn1C(=O)c1cccc(OCc2ccccc2)c1 [compound 156, 5-amino-1-(3-(benzyloxy)phenyl)carbonyl-3-(1,4-benzodioxan-6-yl)amino-1H-1,2,4-triazole]	10 to 20	–
COC(=O)COc1ccc(Nc2nc(N)n(C(=O)c3ccc(OC(C)C)cc3)n2)cc1 [compound 157, 5-amino-1-(4-(iso-propoxy)phenyl)carbonyl-3-[4-(methoxycarbonylmethoxy)phenylamino]-1H-1,2,4-triazole]	1 to 10	–
CC(C)Oc1ccc(C(=O)n2nc(Nc3ccc(OCCC4OCCO4)cc3)nc2N)cc1 [compound 158, 5-amino-3-[4-[2-(1,3-dioxolan-2-yl)ethoxy]phenylamino]-1-(4-(iso-propoxy)phenyl)carbonyl-1H-1,2,4-triazole]	1 to 10	–
CC(C)Oc1ccc(C(=O)n2nc(Nc3ccc(OCCN4CCOCC4)cc3)nc2N)cc1 [compound 159]	< 1	–
Cc1cccc(C(=O)n2nc(Nc3ccc4cn[nH]c4c3)nc2N)c1 [compound 160, 5-amino-3-(indazol-6-yl)amino-1-(3-(methyl)phenyl)carbonyl-1H-1,2,4-triazole]	–	IC50 [1]: 1 to 10 µM
Cc1cccc(C(=O)n2nc(Nc3ccc4c(c3)NC(=O)CO4)nc2N)c1 [compound 161, 5-amino-3-(benzo[b][1,4]oxazin-3(4H)-on-6-yl)amino-1-(3-(methyl)phenyl)carbonyl-1H-1,2,4-triazole]	–	IC50 [1]: > 20 µM
Nc1nc(Nc2ccc3c(c2)OCCO3)nn1C(=O)c1ccc(O)cc1 [compound 162, 5-amino-3-(1,4-benzodioxan-6-yl)amino-1-(4-(hydroxy)phenyl)carbonyl-1H-1,2,4-triazole]	1 to 10	–
CC(C)Oc1ccc(C(=O)n2nc(Nc3ccc(OCCN4CCCCC4)cc3)nc2N)cc1 [compound 163]	< 1	–
Cc1cccc(C(=O)n2nc(N)nc2Nc2cccc(OCC(=O)NC3CCCCC3)c2)c1 [compound 164, 3-amino-5-[3-[cyclohexylaminocarbonylmethoxy]phenylamino]-1-(3-(methyl)phenyl)carbonyl-1H-1,2,4-triazole]	–	IC50 [3]: > 20 µM
Cc1cccc(C(=O)n2nc(Nc3cccc(OCC(=O)NC4CCCCC4)c3)nc2N)c1 [compound 165, 5-amino-3-[3-[cyclohexylaminocarbonylmethoxy]phenylamino]-1-(3-(methyl)phenyl)carbonyl-1H-1,2,4-triazole]	> 20	–
Nc1nc(Nc2ccc3c(c2)OCCO3)nn1C(=O)c1cccc(O)c1 [compound 166, 5-amino-3-(1,4-benzodioxan-6-yl)-amino-1-(3-(hydroxy)phenyl)carbonyl-1H-1,2,4-triazole]	1 to 10	–
